For assay [1], the system named is rat-OFA. Put plainly: Wound-healing power in the rat: sutured flank incision, topical application, scar resistance to stretching by dynamometer. The class given is in vivo. Conditions: for augmentation de la cicatrisation des plaies par rapport aux témoins: 5 jours; for Résistance des cicatrices à l'étirement, Moyenne: mean of treated group (control 24,5 +/- 1,5). The protocol: Déterminer le pouvoir cicatrisant du peptide n° 7 administré chez le rat-OFA par applications topiques aux doses de 0,75 µg, 7,5 µg et 75 µg par animal pendant cinq jours.
I - Animaux : rats de souche OFA, OF1, IFFA-CREDO, pesant de 250 à 300 g.
Conjugué peptidique n° 7, correspondant la formule : Adipoyl-Lys-Lys-Gly-His-Lys-NH2.
Mis en solution dans le propylène glycol aux doses de 1,5 µg/ml, 15 µg/ml, 150 µg/ml.
Après anesthésie générale à l'éther, une incision de 5 cm de long a été pratiquée sur la flanc droit des animaux.
Une suture en fil trinyl 2/0 a été effectuée à raison d'un point tous les 0,5 cm.
Les animaux traités comme les témoins ont subi la même intervention dans les mêmes conditions.
Le traitement a débuté le lendemain de l'intervention sur les lots d'animaux traités aux doses de 0,5 ml de solution peptidique sur chaque incision.
Soit 0,75 µg, 7,5 µg et 75 µg de peptide par animal et par application pendant la durée du traitement, soit 5 jours.
Les animaux ont été mis en observation pendant 9 jours, ils ont ensuite été sacrifiés par une dose létale de penthiobarbital.
Les zones de peau en cours de cicatrisation ont été prélevées et soumises aux "tests" d'étirement au dynamomètre, pour mesurer la résistance de la cicatrice à l'étirement.
Une analyse statistique a été effectuée sur les valeurs de résistance obtenue au dynamomètre. Une analyse de variance et un test de "T" student a été pratiqué sur les valeurs individuelles, afin de définir le seuil de signification des résultats.

The subject of assay [2] is MRC5, fibroblastes de poumon embryonnaire humain. Description: Type I collagen synthesis by cultured MRC5 fibroblasts, secondary immunofluorescence. The class given is cell-based. The settings on record: MRC5, results not shown. The text has this: (§1) La mise en évidence de l'influence du conjugué n' 7 sur la synthèse de collagène de type I par des cellules en culture a été réalisée sur deux types cellulaires : • des fibroblastes humains de plastie mammaire au 3ème passage, obtenus dans notre laboratoire de culture cellulaire à l'IEB, • des MRC5, fibroblastes de poumon embryonnaire humain non transformés au passage p38, obtenus à p 25-30 chez ICN FLOW.
(§2) Les cellules sont stimulées ou non avec le conjugué n° 7, puis elles sont observées au microscope pholoniquc à fluorescence après révélation du collagène de type I par une réaction d'immuno-fluorescence secondaire.
(§3) Les cellules sont ensemencées à raison de 70 000 cellules par ml pour les fibroblastes de primoculture et 20 000 pour les MRC5.
(§4) La culture est réalisée en DMEM 10% SVF dans les tubes de Leigton contenant une lamelle dans le fond du tube, volume final : 1,6 ml.
8 tubes sont prévus par type cellulaire : 3 témoins et 5 concentrations. […]
(§5) Les observations microscopiques sont réalisées sur un microscope droit à fluorescence Zeiss (Axioplan), surmonté d'une caméra 3 CCD Sony (MC-3215 P/M) reliée à un moniteur vidéo Trinitron avec écran couleur Sony. […]
(§6) Les cellules sont d'abord observées en contraste interférentiel et/ou de phase. Quand un champ est sélectionné, l'image est enregistrée, puis sans bouger d'endroit l'observation est réalisée en fluorescence et enregistrée. […]

Assay [3] relates to fibroblastes humains de plastie mammaire. Put plainly: Type I collagen synthesis by cultured primary fibroblasts, secondary immunofluorescence (rhodamine/TRITC). The class given is cell-based, humain.
From the text: as §1, §2, §3, §4
8 tubes sont prévus par type cellulaire : 3 témoins et 5 concentrations.
Ces différentes solutions mères seront ajoutées au milieu de culture au moment du contact produit.
Les dilutions sont réalisées dans du PBS (Eurobio) - BSA 0,1% (Flucka) puis filtrées sur filtres 0,22 µm (Sartorius).
A J0, le milieu est éliminé et remplacé par du milieu frais auquel est ajouté le conjugué n° 7 aux différentes concentrations selon le tableau suivant :
Les témoins TO et T ne reçoivent que du milieu.
Le milieu est élimine; les tubes sont rincés 3 fois avec du DMEM sans sérum à 37° C. Les cellules sont fixées 20 mn à 4°C en présence de PFA 2,5% (Prolabo) dans du Hanks (Eurobio).
3 rinçages en DMEM sans sérum sont effectués suivis de 2 lavages 10 mn en PBS sans calcium ni magnésium (Eurobio). […]
as §5, §6

Several values for one entry are separate records, joined by “and”; a condition that tells them apart may be missing. Equal values may be shown once. Starred links: 1 amine or outer side, 2 acyl side, 3 side chain; linkers in the order of their positions; H or OH if unused. Residues, ends and D or L forms follow the SMILES beside them. Adipoyl = O=C(CCCCC(=O)[*:2])[*:1]

From patent publication EP0869969B1, “PEPTIDE CONJUGATES, USE THEREOF AS A DRUG, AND COMPOSITIONS CONTAINING them” (INSTITUT EUROPEEN DE BIOLOGIE CELLULAIRE, priority 1995, dated 2003) come the findings set out here.

Regarding `NCCCC[C@H](NC(=O)[C@H](Cc1c[nH]cn1)NC(=O)CNC(=O)[C@H](CCCCN)NC(=O)[C@H](CCCCN)NC(=O)CCCCC(=O)O)C(N)=O` [conjugué 7, Adipoyl-Lys-Lys-Gly-His-Lys-NH2] (Adipoyl-KKGHK-NH2), the “augmentation de la cicatrisation des plaies par rapport aux témoins” value is 14,5% in assay [1] (topical, 0,75 µg par jour); 59,6% in assay [1] (topical, 75 µg par jour); 30,9% in assay [1] (topical, 7,5 µg par jour). Also, the “Résistance des cicatrices à l'étirement "dynamométrie"” value in assay [1] (topical, 0,75 µg/jour/5 jours, individual treated animals, sacrifice after 9 days) was 28,5 Dynes and 26,1 Dynes and 29,3 Dynes and 27,7 Dynes and 28,6 Dynes. Also, the “Résistance des cicatrices à l'étirement "dynamométrie", Moyenne” value in assay [1] (topical, 0,75 µg/jour/5 jours, mean of treated group (control 24,5+/-1,5)) is 28,0+/-1,2 Dynes. The “Résistance des cicatrices à l'étirement, Dynes” value is 32,6 Dynes and 30,4 Dynes and 33,1 Dynes and 32,3 Dynes and 31,8 Dynes in assay [1] (topical, 7,5 µg/jour/5 jours (Tableau n° 2), individual treated animals); 39,8 Dynes and 41,3 Dynes and 37,5 Dynes and 36,2 Dynes and 40,7 Dynes in assay [1] (topical, Tableau n° 3, 7,5 µg/jour/5 jours, individual treated animals). Further, the “Résistance des cicatrices à l'étirement, Moyenne” value in assay [1] (topical, 7,5 µg/jour/5 jours (Tableau n° 2)) was 32,0 +/- 1,0 Dynes; in assay [1] (topical, Tableau n° 3, 7,5 µg/jour/5 jours), 39,1+/-2,2 Dynes. For the same molecule, in assay [1] (topical, day 9), the “aspect des cicatrisations au 9ème jour” value was “cicatrisation parfaitement plate, avec absence de bourrelets cicatriciels”. The action cicatrisante result in assay [1] (topical, overall conclusion) is on record as “action cicatrisante hautement significative”. Further, the “synthèse de collagène de type I” value in assay [2] was “mêmes tendances”; in assay [3] (10-11 M, fibroblastes de primoculture) it was “stimule très significativement”. Besides, in assay [3] (10-11 M, untreated cells 32,78), the “luminosité moyenne du rouge sur l'ensemble de l'image” value is 54,8. Besides, the “stimulation de la synthèse de collagène de type 1” value in assay [3] (fibroblastes humains de primocultures, versus untreated cells) was “+67%”.
